Measurements published in patent US20260146044A1, “AROMATIC COMPOUND, PHARMACEUTICAL COMPOSITION CONTAINING SAME, AND USE THEREOF” (Increland, priority 2023, published 2026).
Where two headings read alike, the source gives them in different places.

Legend:
[1] = system: secretion levels of IL-6 in PBMC cells; assay: Inhibition of LPS+IL-1β-induced IL-6 secretion in PBMC (IL-6 ELISA); format: cell-based; settings: human PBMC, 24 h compound pre-incubation, 20 h stimulation
[2] = system: IMQ-induced psoriasis model; assay: IMQ-induced psoriasis model, skin thickening and ear thickening; format: in vivo, BALB/c mice; settings: BID, gavage; for IMQ-induced psoriatic ear thickening, P compared with the Model group: FIG. 2
Experimental: Male BALB/c mice aged 6-8 weeks were randomly grouped into 15 groups or 6 groups after 1 week of adaptive feeding: control group, imiquimod model group (i.e., Model group), clobetasol propionate group (i.e., CLO group), the compounds of the present invention: TM-57 ICL-004192 (3 mg/kg, 10 mg/kg, 30 mg/kg), TM-109ICL-004240 (3 mg/kg, 10 mg/kg, 30 mg/kg, 60 mg/kg), TM-101ICL-004250 (3 mg/kg, 10 mg/kg, 30 mg/kg, 60 mg/kg), with 5 mice per group, and the Control group, the imiquimod model group (i.e., the Model group), and the clobetasol propionate group (i.e., the CLO group). On day 0, each of the mice was unhaired on the back using a hair removal cream, with a hair removal area of 2.5 cm×1.5 cm. On the first day, IMQ cream was used for modeling, and a corresponding drug was administered by gavage for treatment. The compounds of the present invention were administered by gavage at corresponding doses twice daily in the morning and evening with an interval of 8 h between two administrations. 2 h after the first gavage on a same day, the IMQ cream was applied to the to-be-unhaired site on the back and the left ear of each of the mice, with doses of the IMQ cream administered to the to-be-unhaired site on the back and the left ear being 62.5 mg and 7.5 mg, respectively. 5 h after the IMQ cream was applied to the to-be-unhaired area on the back and the left ear of each of the mice in the CLO group, clobetasol propionate cream was applied once daily. The blank group and the IMQ group were administrated with a vehicle twice daily in the morning and evening with an interval of 8 h between two administrations. […]
Referring to the Psoriasis Area and Severity Index (PASI) scoring criteria, the psoriasis, erythema, and thickness of skin lesions on the back were scored from 0 to 4 every morning from day 1 of modeling, with the scoring criteria as shown in Table 1. […] The ear thickness of the left ear of the mouse was measured using a digital vernier caliper three times every morning from day 1, to obtain a mean value.

[3] = Pharmacokinetic experiment on mice (iv and ig); format: in vivo; settings: mouse, plasma, BALB/c Mice; for bioavailability: ig 5.00 mg/kg vs iv 1.00 mg/kg, read-out: Oral bioavailability Fobs (%); for Cmax: read-out: Peak plasma concentration Cmax
[4] = system: secretion levels of IL-6 in PBMC cells; assay: Inhibition of R848-induced IL-6 secretion in PBMC (IL-6 ELISA); format: cell-based; settings: human PBMC, 20 h compound pre-incubation, 24 h stimulation
In short: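 PBMC pre-treated with compounds (top 1 μM, 4-fold dilutions) in RPMI 1640/10% FBS for 20 h at 37 °C, then stimulated with R848 ([…] final) for another 24 h. Supernatant IL-6 by ELISA (OD450, standard curve); IC50 from dose-effect curve fit.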

| bioavailability ([3]; po) [%] | AUC ([3]; po, ig, 5.00 mg/kg) [ng·h/mL] | AUC(0-inf) ([3]; po, ig, 5.00 mg/kg) [ng·h/mL] | Cmax ([3]; po, ig, 5.00 mg/kg) [ng/mL] | AUC ([3]; iv, 1.00 mg/kg) [ng·h/mL] | AUC(0-inf) ([3]; iv, 1.00 mg/kg) [ng·h/mL] | Cmax ([3]; iv, 1.00 mg/kg) [ng/mL] | Compound | IC50 [1] [nM] | IMQ-induced psoriatic ear thickening, P compared with the Model group ([2]; 60 mg/kg) | IC50 [4] [nM] | IMQ-induced psoriatic skin thickening, P compared with the Model group ([2]; 30 mg/kg, FIG. 1) | IMQ-induced psoriatic ear thickening, P compared with the Model group ([2]; 30 mg/kg) |
| --- | --- | --- | --- | --- | --- | --- | --- | --- | --- | --- | --- | --- |
| 63 | 10100 | 10100 | 1300 | 3220 | 3220 | 605 | Cc1nn(C2CCC(=O)NC2=O)c2cncc(N3CCN(C[C@H]4CC[C@H](n5cc6cc(NC(=O)c7cnn8cccnc78)c(N7CCO[C@H](C)C7)cc6n5)CC4)CC3)c12 (some centres unmarked) [TM-109] | 39.2 | < 0.01 | – | – | – |
| 48.4 | 1770 | 1920 | 342 | 790 | 795 | 276 | Cc1nn(C2CCC(=O)NC2=O)c2cccc(N3CC4CN(C[C@H]5CC[C@H](n6cc7cc(NC(=O)c8cnn9cccnc89)c(N8CCOCC8)cc7n6)CC5)CC4C3)c12 (some centres unmarked) [TM-57] | 8.67 | – | 3.43 | < 0.01 | < 0.0001 |
